# Reference: patent US4093720A, “Novel-17-spirosultines their corresponding hydroxy acids and compositions thereof” (Roussel Uclaf, priority 1976, dated 1978)
# Experiments:
# [1] = test system: activity of 1 μg/kg of aldosterone monoacetate; assay: Antialdosterone activity in surrenalectomized rats; type: in vivo; conditions: male Sprague-Dawley surrenalectomized rats; oral dose 5 mg/kg; 1 μg/kg aldosterone monoacetate s.c.; 4 hours urine collection
# Method: Male rats of the Sprague-Dawley strain weighing about 180 g were surrenalectomized and at that moment, the rats received with drinking water a physiological serum. […] At the end of 47 hours, the rats received orally either the B isomer of (17R) 6β, 7β-methylene-2'-oxidospiro-(Δ^4 -androstene-17,5'-[1',2']-oxathiolane)-3-one (product A), the B isomer of (17R) 6α, 7α-methylene-2'-oxidospiro-(Δ^4 -androstene-17,5'-[1',2']-oxathiolane)-3-one (product B) or the B isomer of (17R) 7α-methyl-2'-oxidospiro-(Δ^4 -androstene-17,5'-[1',2']-oxathiolane)-3-one (product C) in the form of a solution or suspension in 0.25% carboxymethylcellulose. One hour after the said oral administration, the animals received a hydrosaline overdose by intraperitoned administration of 5 ml of a […] physiological serum per 100 g of body weight and 1 μg/kg of a 2.5% alcoholic solution of aldosterone monoacetate by subcutaneous administration. The animals were placed in diuresis cages without food or drink for 4 hours and at the end of 4 hours, a forced miction was caused by pressure on the bladder. The volume of urine was brought to 50 ml and the amount of sodium and potassium was determined with an autoanalyser.
# androgen receptors = biological target: T1, androgen receptors (Rattus norvegicus, UniProt P15207); assay: Affinity for androgenic receptors (hormonal receptor test, rat prostate cytosol, tritiated product R); type: binding, rats; conditions: for affinity for androgen receptors (in words): conclusion from Table II; for RLA (relative affinity = 100 × CT/CX): prostate cytosol of castrated male rats, tritiated 17α-methyl-Δ4,9,11-estratriene-17β-ol-3-one, 0° C, 2 hours, testosterone = 100
# T1 construct: the prostate was removed from male rats castrated 24 hours earlier and was homogenized in a buffer; from tissue; host or cells: prostate cytosol (105,000g supernatant) of male rats castrated 24 hours earlier
# T1 sequence (P15207 1-902): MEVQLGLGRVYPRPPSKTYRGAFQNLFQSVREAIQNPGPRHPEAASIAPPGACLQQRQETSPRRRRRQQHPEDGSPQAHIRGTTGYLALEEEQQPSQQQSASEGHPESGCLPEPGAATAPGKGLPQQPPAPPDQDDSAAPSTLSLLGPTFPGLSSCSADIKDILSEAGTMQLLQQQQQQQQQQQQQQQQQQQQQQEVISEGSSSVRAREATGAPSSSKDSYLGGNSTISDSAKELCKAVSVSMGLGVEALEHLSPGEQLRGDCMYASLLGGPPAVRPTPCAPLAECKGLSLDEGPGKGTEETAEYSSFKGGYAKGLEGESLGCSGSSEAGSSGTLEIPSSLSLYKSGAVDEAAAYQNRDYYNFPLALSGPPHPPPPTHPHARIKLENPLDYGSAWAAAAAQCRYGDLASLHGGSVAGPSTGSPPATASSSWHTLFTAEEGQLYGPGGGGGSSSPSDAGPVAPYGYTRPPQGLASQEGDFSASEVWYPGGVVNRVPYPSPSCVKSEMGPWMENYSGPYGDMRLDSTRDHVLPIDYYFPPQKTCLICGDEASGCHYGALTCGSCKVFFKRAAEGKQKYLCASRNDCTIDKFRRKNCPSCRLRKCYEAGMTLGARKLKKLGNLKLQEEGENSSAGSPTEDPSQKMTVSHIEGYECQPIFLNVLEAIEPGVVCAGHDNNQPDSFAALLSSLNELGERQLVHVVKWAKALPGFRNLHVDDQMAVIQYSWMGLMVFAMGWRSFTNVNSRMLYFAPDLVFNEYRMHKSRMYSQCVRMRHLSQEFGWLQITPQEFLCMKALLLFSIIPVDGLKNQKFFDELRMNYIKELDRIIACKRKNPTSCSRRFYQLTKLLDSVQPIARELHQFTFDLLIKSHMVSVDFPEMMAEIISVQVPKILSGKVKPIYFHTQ
# Method: The test used was the hormonal receptor test described by Raynaud et al [J. Ster. Biochem., Vol. 6 (1975), p. 615-622] in which the prostate was removed from male rats castrated 24 hours earlier and was homogenized in a buffer: 10 millimole tromethamine, saccharose 0.25M, HCl for pH of 7.4. The homogenate was centrifuged at 105,000g for one hour and the surnageant liquid or "cytosol" was then adjusted to obtain a dilution of 1/5 (weight/volume). […] At the end of 2 hours, the radioactivity of tritiated product tied to the receptor was determined by the adsorption technique of carbondextran (1.25% to 0.625%).
# B/T max. is the percentage of tritiated product R bound when no product was added and B/T min. is the percentage of tritiated product R bound when the mazimum quantity of cold product R is added. The intersections of line I50 and the curves permit the determination of the CT and CX values.
Structure (SMILES),% inhibition of the activity of aldosterone monoacetate against the urinary sodium/potassium ratio [1] [%],affinity for androgen receptors (in words) (androgen receptors),RLA (relative affinity = 100 × CT/CX) (androgen receptors)
"C[C@]12CCC(=O)C=C1[C@@H]1C[C@@H]1[C@@H]1[C@@H]2CC[C@@]2(C)[C@H]1CC[C@@]21CCS(=O)O1 (single isomer, unassigned) [product A]",25,little or no affinity,0
"C[C@]12CCC(=O)C=C1[C@H]1C[C@H]1[C@@H]1[C@@H]2CC[C@@]2(C)[C@H]1CC[C@@]21CCS(=O)O1 (single isomer, unassigned) [product B]",19,–,–
"C[C@@H]1CC2=CC(=O)CC[C@]2(C)[C@H]2CC[C@@]3(C)[C@@H](CC[C@@]34CCS(=O)O4)[C@H]12 (single isomer, unassigned) [product C]",22,little or no affinity,3.6
